Patent US5744462A, “Steroids useful as anti-cancer and anti-obesity agents” (Research Corporation Technologies, Inc., priority 1995, dated 1998)
Entries after “also recorded” stand apart in the source; their conditions may differ.

Key:
[1] = DMBA-initiated and TPA-promoted; cited from earlier work
[2] = topical, complete carcinogenesis model; cited from earlier work
[3] = test system: mammalian glucose-6-phosphate dehydrogenase (G6PDH); settings: cited from earlier work
[4] = test system: human lymphocytes (Epstein-Barr virus-induced transformation); settings: cited from earlier work
[5] = biological target: purified bovine adrenal G6PDH (Bos taurus, UniProt F1MMK2); assay: G6PDH inhibition test; type: biochemical; settings: individual determinations
Chain of purified bovine adrenal G6PDH (F1MMK2 31-70): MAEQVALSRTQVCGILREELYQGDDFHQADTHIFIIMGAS
Chain of purified bovine adrenal G6PDH (F1MMK2 101-575): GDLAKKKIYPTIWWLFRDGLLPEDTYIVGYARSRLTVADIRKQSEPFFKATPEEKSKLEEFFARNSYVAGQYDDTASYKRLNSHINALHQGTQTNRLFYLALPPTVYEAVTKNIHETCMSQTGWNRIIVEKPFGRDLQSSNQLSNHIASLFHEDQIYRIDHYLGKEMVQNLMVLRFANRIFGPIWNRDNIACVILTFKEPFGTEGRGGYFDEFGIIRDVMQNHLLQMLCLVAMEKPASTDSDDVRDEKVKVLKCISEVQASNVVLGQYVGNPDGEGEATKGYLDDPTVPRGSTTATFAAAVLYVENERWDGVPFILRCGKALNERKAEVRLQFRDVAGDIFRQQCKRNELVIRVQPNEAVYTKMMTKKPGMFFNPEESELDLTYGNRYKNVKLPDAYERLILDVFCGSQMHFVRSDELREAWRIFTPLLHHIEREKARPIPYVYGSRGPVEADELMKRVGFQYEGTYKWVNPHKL
Text: The compound listed below are screened as inhibitors of purified bovine adrenal G6PDH activity as one predictor of cancer preventive action. The assay for testing the inhibition of purified bovine adrenal G6PDH is according to the procedure by Oertell, G. W. and Rebelein, I. in Biochem. Biophys. Acta, 184, 459-460 (1969).

[6] = Estrogenic and anti-estrogenic activity, uterine weight; type: in vivo, rat (female CD); settings: Table 2a; 60 mg/kg s.c. for 3 days; control 1.95 ± 0.22; DHEA significantly greater than control, p < 0.001
Description: Estrogenic and Anti-Estrogenic Activity
Female CD rats, 26-27 days old, were injected subcutaneously for 3 days with one of the compounds of the present invention at 60 mg/kg in propylene glycol. Controls received propylene glycol alone. On the 4th day, the rats were killed and the uteri were dissected out and weighed.

[7] = test system: mouse epidermis (TPA stimulated 3H-thymidine incorporation); assay: TPA stimulation of 3H-thymidine incorporation in mouse epidermis, oral steroid; type: in vivo, mouse (male ICR); settings: Table 9, no steroid 55.1, TPA alone 118
Description: Tumor promoters, such as TPA, stimulate hyperplasia and DNA synthesis when applied to the skin, and it is believed that this stimulation is an important step in the enhancement of tumorigenesis.
Male ICR mice were orally intubated with steroid suspended in sesame oil (0.5 ml/mouse) at the indicated dose. Mice not receiving steroid were given sesame oil alone. One hour later mice received topical application of TPA and 20 hours later the rate of ^3 H-thymidine incorporation into the epidermis was determined as described in Pashko, L. L., Schwartz, A. G., Abou-Gharbia, M., and Swern, D. (1981), Inhibition of DNA synthesis in mouse epidermis and breast epithelium by dehydroepiandrosterone and related steroids, Carcinogenesis, 2,-717-721.
Experimental conditions are the same as in Table 3.

mouse skin DNA = assay: (3H) DMBA binding to skin DNA; type: in vivo, mouse (A/J); settings: oral, mice, doses well below 400 mg/kg
[8] = Anti-obesity action, body weight, female Balb/c mice; type: in vivo, mouse (female Balb/c); settings: 0.25% in diet
Description: Female Balb/c (8 weeks old) mice were obtained from
the Jackson Laboratory and were housed in polycarbonate cages
(6 mice/cage) in animal quarters maintained at 24 ± 1° C. with
12 hours of light and 12 hours of darkness each day. One
week after arrival, the mice were placed on a diet containing
either DHEA, 8354, or without steroid. Animals were weighed

[9] = Liver weight after three weeks of diet treatment; type: in vivo, mouse (female Balb/c); settings: 0.25% of diet
Description: (§1) Female Balb/c mice were housed in polycarbonate cages (6/mice/cage) in animal quarters maintained at 24°±1° C. with 12 hours of light and 12 hours of dark each day. The mice were placed on a diet containing either DHEA, 8354, A, B clofibrate or with no addition. Three weeks later the mice were killed, the livers were perfused with cold saline, weighed, and 5% liver homogenates were prepared for the determination of catalase activity by the spectrophotometric method of Luck (H. Luck, in Method in Enzyme Analysis, H. U. Bergmeyer, Ed. (Verlag Chemie, Weinheim/Bergstrasse, Germany, 1965)). Total protein was measured by the method of Lowry, et al. (O. H. Lowry, N. J. Rosebrough, A. L. Farr, R. J. Randall, J. Biol. Chem., 193, 265 (1951)).

liver catalase = assay: Liver catalase activity after three weeks of diet treatment; type: in vivo, mouse (female Balb/c); settings: 0.25% of diet
Description: as §1

[10] = Estrogenic / androgenic side-effects, general statements; settings: in vivo
[11] = Anti-weight effect in mice, general statements; type: in vivo, mouse
Text: (Table 9 vs Table 5 and Table 6). […] Thus the cancer preventive the cancer preventive effect of DHEA may result indirectly from its anti-weight action rather than from a direct effect of DHEA or target cells.

[12] = after carcinogen; cited from earlier work
[13] = in vivo; cited from earlier work

What does the source list for C[C@H]1CC[C@@]2(C)C(=CC[C@@H]3[C@@H]2CC[C@]2(C)C(=O)CC[C@@H]32)C1 [3β-methylandrost-5-en-17-one]?
skin papilloma formation [1]: inhibit; DMBA produced papillomas and carcinomas [2]: inhibits DMBA produced papillomas and carcinomas

With C[C@]12CC[C@H](O)C[C@@H]1CC[C@@H]1[C@@H]2CC[C@]2(C)C(=O)C(Br)C[C@@H]12 (some centres unmarked) [16-bromo-epiandrosterone] as the compound, how does the “inhibition of mammalian G6PDH” value [3] read?
Its value is “more potent inhibitor of mammalian G6PDH than DHEA”.

And the “inhibition of Epstein-Barr virus-induced transformation” value [4]?
Its value is “inhibitors of Epstein-Barr virus-induced transformation of human lymphocytes”.

For C[C@]12CCCCC1=CC[C@@H]1[C@@H]2CC[C@]2(C)C(=O)[C@H](F)C[C@@H]12 [Compound 8354], which “Percent Inhibition of G6PDH” value ([5]; 10^-5 M) is on record?
Its value is 83%.

And the inhibition at 10 µM ([5]; 10^-5 M, read-out: Percent Inhibition of G6PDH)?
Its inhibition at 10 µM is 79%.

And the “Percent Inhibition of G6PDH” value ([5]; 10^-6 M)?
Its value is 77%.

And the inhibition at 1 µM ([5]; 10^-6 M, read-out: Percent Inhibition of G6PDH)?
Its inhibition at 1 µM is 75%.

And the “Mean Uterine Weigh ± S.D.” value [6]?
Its value is 1.93 ± 0.29.

And the “SPECIFIC ACTIVITY, TPA stimulated 3H-thymidine incorporation” value (from here on “SPECIFIC ACTIVITY”) ([7]; oral 25 mg/kg)?
The value was 47.9 ± 2.0 cpm/ug DNA.

And the “SPECIFIC ACTIVITY” value ([7]; oral 50 mg/kg)?
The value was 36.2 ± 1.4 cpm/ug DNA.

And the “SPECIFIC ACTIVITY” value ([7]; oral 100 mg/kg)?
The value was 15.0 ± 6.3 cpm/ug DNA.

What about the “effect on 3H-DMBA binding to skin DNA” value (mouse skin DNA) of the same compound?
Its value is “inhibit ^3 H-DMBA binding to skin DNA”.

What about the “mean weekly weight ± S.D.” value ([8]; week 0, control 17.5 ± 1.4) of the same compound?
The value was 17.4 ± 0.6 grams.

And the “mean weekly weight ± S.D.” value ([8]; week 1, control 19.9 ± 1.2)?
Its value is 16.9 ± 1.0 grams.

What about the “mean weekly weight ± S.D.” value ([8]; week 2, control 20.6 ± 1.0) of the same compound?
The value was 17.8 ± 0.8 grams.

What about the “mean weekly weight ± S.D.” value ([8]; week 3, control 21.8 ± 0.8) of the same compound?
Its value is 18.0 ± 1.3 grams.

What about the “LIVER WEIGHT” value ([9]; control 0.057 ± 0.006, DHEA p < 0.05, clofibrate p < 0.002 vs control) of the same compound?
Its value is 0.066 ± 0.005 gm/gm body weight.

And the “liver weight, in words” value ([9]; mice)?
The value was “no effect on liver weight; also recorded: neither increased liver weight”.

And the “CATALASE ACTIVITY” value (liver catalase; control 31.1 ± 6.7, DHEA p < 0.05, clofibrate p < 0.001 vs control)?
Its value is 29.2 ± 2.6 Units per mg protein.

And the “catalase activity, in words” value (liver catalase; mice)?
Its value is “no effect on liver weight or catalase activity”.

What about the “estrogenic and androgenic side-effects” value [10] of the same compound?
The value was “lacking the estrogenic and androgenic side-effects of DHEA”.

And the “activity as an anti-obesity agent relative to DHEA” value ([11]; mouse, in vivo)?
The value was “several times more active than DHEA as an anti-obesity agent”.

And the “anti-weight effect at the cancer preventive dosages” value ([11]; oral, mice)?
The value was “possible exception”.

Which results are given for CCCCC(CC)COC(=O)c1ccccc1C(=O)OCC(CC)CCCC (centres unmarked) [di(2-ethylhexyl)-phthalate]?
liver basophilic lesions, enzyme-negative [12]: also produced; effect on liver (type of hepatomegaly) [13]: Typical peroxisome proliferators
